Patent US5783703A, “Sulfur-containing compounds method for their use and prodction” (Lederle (Japan), Ltd., priority 1993, dated 1998)
In brackets after ≈: the same amount, converted by molar mass. Read-outs that look alike come from different tables or passages of the source.

How the values were obtained:
S. marcescens = assay: Antibacterial activities against clinically isolated microorganism; type: cell-based; conditions: Serratia marcescens, 27 strains clinically isolated in Japan
Description: (§1) The following strains clinically isolated freshly in Japan were used in this test.
S. marcescens 27 strains
(§2) 2. The test was carried out by the agar plate dilution method in accordance with the standard method of The Japanese Chemotherapy Society. The minimum inhibitory concentration (MIC) was determined in substantially the same manner as the test procedures described in Test I.

S. epidermidis = assay: as above; type: cell-based; conditions: Staphylococcus epidermidis, 23 strains clinically isolated in Japan
Description: as §1, §2

E. cloacae = assay: as above; type: cell-based; conditions: Enterobacter cloacae, 14 strains clinically isolated in Japan
Description: as §1, §2

K. pneumoniae = assay: as above; type: cell-based; conditions: Klebsiella pneumoniae, 23 strains clinically isolated in Japan
Description: as §1, §2

E. faecalis = assay: as above; type: cell-based; conditions: Enterococcus faecalis, read-out: MIC50 against clinically isolated microorganism
Description: as §1, §2

MRSA = assay: as above; type: cell-based; conditions: Staphylococcus aureus, read-out: MIC50 against clinically isolated microorganism
Description: as §1, §2

E. aerogenes ATCC 13048 = assay: Antibacterial test, agar plate dilution method (MIC), standard strains; type: cell-based; conditions: Klebsiella aerogenes, ATCC13048, MH agar, 37° C., 18 hours
Description: (§3) The antibacterial activities were tested by an agar plate dilution method in accordance with the standard method of The Japanese Chemotherapy Society [Chemotherapy, Vol. 29, 76-79 (1981)].
(§4) A Mueller-Hinton (MH) agar liquid medium of a test microorganism was cultured overnight at 37° C. and the resultant culture medium was diluted with a buffered saline gelatin (BSG) solution to contain approximately 10^6 cells of the test microorganisms per milliliter, and then the diluted solution was inoculated with a microplanter at the rate of approximately 5 microliters on a MH agar medium containing a test compound. This medium was then incubated at 37° C. for 18 hours. The minimum inhibitory concentration (MIC) is determined as a minimum concentration in which no test microorganism could grow. It is noted here that the test organisms used were all standard strains.

S. paratyphi 1015 = assay: as above; type: cell-based; conditions: Salmonella enterica, 18 h
Description: as §3, §4

S. schottmuelleri 8006 = assay: as above; type: cell-based; conditions: MH agar, 37° C., 18 hours
Description: as §3, §4

E. coli K-12 C600 = assay: as above; type: cell-based; conditions: Escherichia coli, K12C600, MH agar, 37° C., 18 hours
Description: as §3, §4

P. mirabilis IFO 3849 = assay: as above; type: cell-based; conditions: Proteus mirabilis, IFO3849, MH agar, 37° C., 18 hours
Description: as §3, §4

E. cloacae 963 = assay: as above; type: cell-based; conditions: Enterobacter cloacae, MH agar, 37° C., 18 hours
Description: as §3, §4

S. aureus Terajima = assay: as above; type: cell-based; conditions: Staphylococcus aureus, MH agar, 37° C., 18 hours
Description: as §3, §4

M. morganii IFO 3848 = assay: as above; type: cell-based; conditions: Morganella morganii, IFO3848, MH agar, 37° C., 18 hours
Description: as §3, §4

P. rettgeri IFO 3850 = assay: as above; type: cell-based; conditions: Providencia rettgeri, IFO3850, MH agar, 37° C., 18 hours
Description: as §3, §4

S. aureus FDA209P JC-1 = assay: as above; type: cell-based; conditions: Staphylococcus aureus, MH agar, 37° C., 18 hours
Description: as §3, §4

S. typhi 901 = assay: as above; type: cell-based; conditions: Salmonella enterica, 18 h
Description: as §3, §4

S. marcescens IAM 1184 = assay: as above; type: cell-based; conditions: Serratia marcescens, IAM1184, MH agar, 37° C., 18 hours
Description: as §3, §4

E. coli NIHJ JC-2 = assay: as above; type: cell-based; conditions: Escherichia coli, NIHJJC2, MH agar, 37° C., 18 hours
Description: as §3, §4

B. subtilis ATCC 6633 = assay: as above; type: cell-based; conditions: Bacillus subtilis, ATCC6633, MH agar, 37° C., 18 hours
Description: as §3, §4

S. pyogenes Cook = assay: as above; type: cell-based; conditions: Streptococcus pyogenes, MH agar, 37° C., 18 hours
Description: as §3, §4

K. pneumoniae PCI-602 = assay: as above; type: cell-based; conditions: Klebsiella pneumoniae, PCI602, MH agar, 37° C., 18 hours
Description: as §3, §4

S. typhimurium 11D971 = assay: as above; type: cell-based; conditions: Salmonella enterica, MH agar, 37° C., 18 hours
Description: as §3, §4

P. vulgaris OX-19 = assay: as above; type: cell-based; conditions: Proteus vulgaris, OX19, MH agar, 37° C., 18 hours
Description: as §3, §4

S. aureus MS353 = assay: as above; type: cell-based; conditions: Staphylococcus aureus, MH agar, 37° C., 18 hours
Description: as §3, §4

S. enteritidis G14 = assay: as above; type: cell-based; conditions: Salmonella enterica, MH agar, 37° C., 18 hours
Description: as §3, §4

P. vulgaris HX-19 = assay: as above; type: cell-based; conditions: Proteus vulgaris, HX19, MH agar, 37° C., 18 hours
Description: as §3, §4

M. luteus ATCC 9341 = assay: as above; type: cell-based; conditions: Micrococcus luteus, ATCC9341, MH agar, 37° C., 18 hours
Description: as §3, §4

[1] = Oral absorption study in mice; type: in vivo, mice of ddY strain; conditions: 100 mg/kg
Description: 5-week-old male mice of ddY strain were used after fasting overnight. The test compounds in 1% physiological saline solution at a dose of 100 mg/kg were administered orally to a group of 2 mice. Blood was taken from the vena jugularis at 15, 30, 60 and 120 minutes after dosing.

[2] = In situ absorption from rat intestinal loop; type: in vivo, rats of Wistar strain; conditions: rat jejunal loop, 20 mg/kg
Description: 7-week-old male rats of Wistar strain were used after fasting overnight. After anesthetizing the animals with ether, the intestine was exteriorized and an acute loop of 30 cm length was prepared from the upper part of jejunum by ligature of both ends. 0.2% physiological saline solutions of the test compounds were injected at a dose of 20 mg/kg into the loop with a syringe, and the loop was returned. About 0.4 ml blood was taken from the vena jugularis at 10, 30, 60 and 120 minutes after dosing.

[3] = Storage stability of the crystal at room temperature; type: physicochemical; conditions: dehumidified state, one month
Excerpt: The 3-mercapto-1-(1,3-thiazolin-2-yl)azetidine hydrochloride (8) in the form of crystal obtained in the above Example 6 was left still in dehumidified state at a room temperature for one month.

[4] = 28 strains clinically isolated in Japan
[5] = mouse, plasma, for (32) and (33) shown as Compound (28)
[6] = plasma, for (32) and (33) shown as Compound (28)
[7] = only deesterified Compound (28) detected

Structure (SMILES)	MIC50 (S. marcescens)	MIC50 (S. epidermidis)	MIC50 (E. cloacae)	MIC50 (K. pneumoniae)	MIC50 (E. faecalis)	MIC50 (MRSA; [4])	MIC (E. aerogenes ATCC 13048)	MIC (S. paratyphi 1015)	MIC (S. schottmuelleri 8006)	MIC (E. coli K-12 C600)	MIC (P. mirabilis IFO 3849)	MIC (E. cloacae 963)	MIC (S. aureus Terajima)	MIC (M. morganii IFO 3848)	MIC (P. rettgeri IFO 3850)	MIC (S. aureus FDA209P JC-1)	MIC (S. typhi 901)	MIC (S. marcescens IAM 1184)	MIC (E. coli NIHJ JC-2)	MIC (B. subtilis ATCC 6633)	further results
C[C@@H](O)[C@H]1C(=O)N2C(C(=O)O)=C(SCCN=CN)C[C@H]12 [Imipenem, imipenem]	1.56 µg/mL (≈ 5.21 µM)	0.2 µg/mL (≈ 0.668 µM)	0.2 µg/mL (≈ 0.668 µM)	0.2 µg/mL (≈ 0.668 µM)	0.78 µg/mL (≈ 2.61 µM)	3.13 µg/mL (≈ 10.5 µM)	–	–	–	–	–	–	–	–	–	–	–	–	–	–	–
COCOC[C@@H]1CSC(N2CC(SC3=C(C(=O)O)N4C(=O)[C@H]([C@@H](C)O)[C@H]4[C@H]3C)C2)=N1 [Compound (31), (1R,5S,6S)-2-[1-((4R)-methoxymethyloxymethyl-1,3-thiazolin-2-yl)azetidin-3-yl]thio-6-[(R)-1-hydroxyethyl]-1-methyl-carbapen-2-em-3-carboxylic acid]	–	–	–	–	–	–	0.39 µg/mL (≈ 0.852 µM)	0.05 µg/mL (≈ 0.109 µM)	0.2 µg/mL (≈ 0.437 µM)	0.2 µg/mL (≈ 0.437 µM)	0.78 µg/mL (≈ 1.7 µM)	0.2 µg/mL (≈ 0.437 µM)	≤ 0.006 µg/mL	0.2 µg/mL (≈ 0.437 µM)	6.25 µg/mL (≈ 13.7 µM)	0.05 µg/mL (≈ 0.109 µM)	0.05 µg/mL (≈ 0.109 µM)	0.39 µg/mL (≈ 0.852 µM)	0.05 µg/mL (≈ 0.109 µM)	0.025 µg/mL (≈ 0.0546 µM)	MIC (S. pyogenes Cook): ≤ 0.006 µg/mL; MIC (K. pneumoniae PCI-602): 0.013 µg/mL (≈ 0.0284 µM); MIC (S. typhimurium 11D971): 0.1 µg/mL (≈ 0.219 µM); MIC (P. vulgaris OX-19): 0.1 µg/mL (≈ 0.219 µM); MIC (S. aureus MS353): 0.025 µg/mL (≈ 0.0546 µM); MIC (S. enteritidis G14): 0.2 µg/mL (≈ 0.437 µM); MIC (P. vulgaris HX-19): 0.39 µg/mL (≈ 0.852 µM); MIC (M. luteus ATCC 9341): 0.2 µg/mL (≈ 0.437 µM)
C[C@@H](O)[C@H]1C(=O)N2C(C(=O)O)=C(SC3CN(C4=NCCS4)C3)[C@H](C)[C@H]12 [Compound (28), (1R,5S,6S)-2-[1-(thiazolin-2-yl)azetidin-3-yl]thio-6-[(R)-1-hydroxyethyl]-1-methyl-carbapen-2-em-3-carboxylic acid]	0.2 µg/mL (≈ 0.522 µM)	0.39 µg/mL (≈ 1.02 µM)	0.1 µg/mL (≈ 0.261 µM)	0.025 µg/mL (≈ 0.0652 µM)	0.39 µg/mL (≈ 1.02 µM)	0.78 µg/mL (≈ 2.03 µM)	0.1 µg/mL (≈ 0.261 µM)	0.05 µg/mL (≈ 0.13 µM)	0.025 µg/mL (≈ 0.0652 µM)	0.1 µg/mL (≈ 0.261 µM)	0.39 µg/mL (≈ 1.02 µM)	0.05 µg/mL (≈ 0.13 µM)	≤ 0.006 µg/mL	0.39 µg/mL (≈ 1.02 µM)	0.39 µg/mL (≈ 1.02 µM)	0.013 µg/mL (≈ 0.0339 µM)	≤ 0.006 µg/mL	0.05 µg/mL (≈ 0.13 µM)	0.013 µg/mL (≈ 0.0339 µM)	0.025 µg/mL (≈ 0.0652 µM)	MIC (S. pyogenes Cook): ≤ 0.006 µg/mL; MIC (K. pneumoniae PCI-602): 0.013 µg/mL (≈ 0.0339 µM); MIC (S. typhimurium 11D971): 0.025 µg/mL (≈ 0.0652 µM); MIC (P. vulgaris OX-19): 0.1 µg/mL (≈ 0.261 µM); MIC (S. aureus MS353): ≤ 0.006 µg/mL; MIC (S. enteritidis G14): 0.39 µg/mL (≈ 1.02 µM); MIC (P. vulgaris HX-19): 0.1 µg/mL (≈ 0.261 µM); MIC (M. luteus ATCC 9341): 0.2 µg/mL (≈ 0.522 µM); AUC(0-t) at 2 h [1, 5]: 5000 ng·h/mL; Cmax [1, 5]: 3500 ng/mL; AUC(0-t) at 2 h [2, 6]: 1000 ng·h/mL; Cmax [2, 6]: 800 ng/mL
Cl.SC1CN(C2=NCCS2)C1 [compound (8), 3-mercapto-1-(1,3-thiazolin-2-yl)azetidine hydrochloride]	–	–	–	–	–	–	–	–	–	–	–	–	–	–	–	–	–	–	–	–	purity after storage (storage stability) [3]: did not change at all
CC(OC(=O)OC1CCCCC1)OC(=O)C1=C(SC2CN(C3=NCCS3)C2)[C@H](C)[C@@H]2[C@@H]([C@@H](C)O)C(=O)N12 (stereo partly drawn) [Compound (33), 1-[(cyclohexyloxy)carbonyloxy] ethyl (1R,5S,6S)-2-[1-(1,3-thiazolin-2-yl)azetidin-3-yl]thio-6-[(R)-1-hydroxyethyl]-1-methylcarbapen-2-em-3-carboxylate]	–	–	–	–	–	–	–	–	–	–	–	–	–	–	–	–	–	–	–	–	plasma level of the administered ester itself [1, 7]: undetectable; plasma level of the administered ester itself [2, 7]: undetectable
CC(C)(O/N=C(\C(=O)N[C@@H]1C(=O)N2C(C(=O)[O-])=C(C[n+]3ccccc3)CS[C@H]12)c1csc(N)n1)C(=O)O [CAZ, ceftazidime]	0.39 µg/mL (≈ 0.714 µM)	12.5 µg/mL (≈ 22.9 µM)	1.56 µg/mL (≈ 2.85 µM)	0.2 µg/mL (≈ 0.366 µM)	25 µg/mL (≈ 45.7 µM)	–	–	–	–	–	–	–	–	–	–	–	–	–	–	–	MIC50 (MRSA): 100 µg/mL (≈ 183 µM)
